# Key:
# [1] = Lymphatic transport studies in rats (mesenteric lymph duct cannulated, intraduodenal infusion); details: for Transport of total TST derivatives in lymph (% of dose): intraduodenal infusion, anaesthetised, mesenteric lymph-duct cannulated female SD rats, mean ± SEM (n≥3) or mean ± range (n=2); for Fold increase (compared with control group dosed with TU): lymphatic transport, testosterone series, female SD rats
# [2] = Pharmacokinetic (PK) studies in rats after oral gavage (plasma free parent drug); details: for AUC0-24 h fold increase compared with TU group: plasma testosterone exposure; for Tmax / AUC0-24 h: plasma testosterone, mean ± SEM; for AUC0-24 h: normalized to 2 mg/kg equivalent testosterone dose; for Cmax: read-out: Cmax (nmol/L), plasma testosterone, conscious carotid artery cannulated SD female rats, normalized to 2 mg/kg equivalent testosterone dose, mean ± SEM
# [3] = tested on: porcine pancreatic lipase; assay: In vitro hydrolysis of compounds by porcine pancreatic lipase (stability of monoglyceride forms); assay type: in vitro ADME; details: simulated intestinal micellar solution, pH 6.5, 37° C., up to 180 minutes; FIG. 9
# Experimental: In vitro hydrolysis of testosterone prodrugs was performed via incubation with porcine pancreatic lipase. Briefly, pancreatic lipase solution was prepared prior to the hydrolysis experiment by dispersion of 1 g porcine pancreatin in 5 ml of lipolysis buffer. The suspension was mixed well and centrifuged at 3500 rpm for 15 minutes at 5° C. to provide a supernatant. An amount of 1000 ml of lipolysis buffer was prepared with 0.474 g of tris-maleate (2 mM), 0.206 g of CaCl2·H2O (1.4 mM) and 8.775 g of NaCl (150 mM) adjusted with NaOH to pH 6.5. To assess the potential for prodrug hydrolysis in the intestine, 20 μl of prodrug solution (1 mg/ml dissolved in acetonitrile), 900 μl of simulated intestinal micellar solution [prepared with 0.783 g of NaTDC (3 mM) and 0.291 g of phosphatidyl choline (0.75 mM) in 500 ml lipolysis buffer] and 100 μl of enzyme solution were incubated at 37° C. […] The supernatant was analysed by HPLC-MS for residual compound concentrations, and the potential products of compound hydrolysis were analysed.
# On incubation with digestive enzymes, the monoglycerides forms of the prodrugs are formed very rapidly. The stability in simulated intestinal conditions is therefore better assessed by the stability of the monoglycerides form that is generated by the initial digestion process. […]
# lipoprotein lipase (LPL) = assay: In vitro release of MPA from prodrugs in rat lymph supplemented with lipoprotein lipase; assay type: in vitro ADME; details: LPL 200 unit/ml, 37° C., n=1; FIG. 10
# Experimental: In order to probe the release of free MPA from TG prodrugs in the lymphatics (the active site of MPA is in lymphocytes that are enriched in the lymphatic system), MPA prodrugs were incubated with rat lymph supplemented with lipoprotein lipase (LPL, 200 unit/ml). LPL is a key enzyme required for the hydrolysis of lipoprotein associated TG in normal physiological conditions and is therefore expected to be a key contributor to lipolysis of the re-esterified Drug-TG construct in plasma, largely via liberation of FAs in the sn-1 and the sn-3 position of the TG-mimetic, prior to drug release from the 2′ positon via esterase hydrolysis. LPL is tethered to lymphocytes or lymphatic/vascular endothelial cells under physiological conditions. In the current in vitro studies, rat lymph was therefore supplemented with LPL to better reflect the in vivo situation. To start hydrolysis, 10 μl of LPL solution (10,000 unit/ml) was added to a mixture of 10 μl of prodrug solution (1 mg/ml dissolved in acetonitrile) and 500 μl of blank Sprague Dawley rat lymph. The solution was incubated at 37° C. Samples (20 μl) of the incubation solution were taken at 0, 5, 10, 15, 30, 60, 90, 120 and 180 minutes post incubation and added to 980 μl of 9:1 (v/v) ACN-water to stop lipolysis. […] The supernatant was analysed by HPLC-MS/MS for MPA concentrations.
# [4] = 'is thought to be'; cited from earlier work
Molecule,Transport of total TST derivatives in lymph (% of dose) [1],Fold increase (compared with control group dosed with TU) [1],AUC0-24 h fold increase compared with TU group ([2]; SD female rats),Tmax ([2]; SD female rats) [h],AUC0-24 h ([2]; SD female rats) [nmol·h/L],Cmax [2] [nmol/L],Stability of the monoglyceride form during in vitro incubation with porcine pancreatic lipase [3],Release of MPA on incubation with LPL supplemented rat lymph (lipoprotein lipase (LPL)),further results
"1-(1,3-Bis(palmitoyloxy)propan-2-yl) 4-((((8R,9S,10R,13S,14S,17S)-10,13-dimethyl-3-oxo-2,3,6,7,8,9,10,11,12,13,14,15,16,17-tetradecahydro-1H-cyclopenta[a]phen-anthren-17-yl)oxy)methyl) 2/3-methylsuccinate [Compounds 13/14]",8.0 ± 2.5 % of dose,4.2,94.6,1.4 ± 0.1,645.3 ± 144.9,568 ± 155,much more stable,–,"Systemic exposure of testosterone, fold higher than Compound 12 ([2]; SD female rats): ~13 fold"
"CCCCCCCCCCCCCCCC(=O)OCC(COC(=O)CCCCCCCCCCCCCCC)OC(=O)CC(C)CC(=O)OCOC(=O)CC/C(C)=C/Cc1c(O)c2c(c(C)c1OC)COC2=O (stereo not shown) [Compound 10, (E)-1-(1,3-Bis(palmitoyloxy)propan-2-yl) 5-(((6-(4-hydroxy-6-methoxy-7-methyl-3-oxo-1,3-dihydroisobenzofuran-5-yl)-4-methylhex-4-enoyl)oxy)methyl) 3-methyl-pentanedioate]",–,–,–,–,–,–,–,very rapid,–
"CCCCCCCCCCCCCCCC(=O)OCC(COC(=O)CCCCCCCCCCCCCCC)OC(=O)CC(C)CC(=O)OC(C)OC(=O)CC/C(C)=C/Cc1c(O)c2c(c(C)c1OC)COC2=O (stereo not shown) [Compound 11, (E)-1-(1,3-Bis(palmitoyloxy)propan-2-yl) 5-(1-((6-(4-hydroxy-6-methoxy-7-methyl-3-oxo-1,3-dihydroisobenzofuran-5-yl)-4-methylhex-4-enoyl)oxy)ethyl) 3-methylpentanedioate]",–,–,–,–,–,–,–,very rapid,–
"CCCCCCCCCCCCCCCC(=O)OCC(COC(=O)CCCCCCCCCCCCCCC)OC(=O)CCC(=O)OCO[C@H]1CC[C@H]2[C@@H]3CCC4=CC(=O)CC[C@]4(C)[C@H]3CC[C@]12C [Compound 12, 1,3-Bis(palmitoyloxy)propan-2-yl ((((8R,9S,10R,13S,14S,17S)-10,13-dimethyl-3-oxo-2,3,6,7,8,9,10,11,12,13,14,15,16,17-tetradecahydro-1H-cyclopenta[a]phenanthren-17-yl)oxy)methyl) succinate]",–,–,–,–,–,–,labile,–,–
"CCCCCCCCCCC(=O)O[C@H]1CC[C@H]2[C@@H]3CCC4=CC(=O)CC[C@]4(C)[C@H]3CC[C@]12C [TU, testosterone undecanoate, reference compound]",1.9 ± 0.3 % of dose,1.0,1.0,1.5 ± 0.0,6.8 ± 0.4,5.6 ± 0.5,–,–,Bioavailability of testosterone after oral administration of the undecanoate ester [4]: < 5%
"C[C@]12CC[C@H]3[C@@H](CCC4=CC(=O)CC[C@@]43C)[C@@H]1CC[C@@H]2O [Testosterone, testosterone]",Below LOQ*,–,–,–,–,–,–,–,–

# Source: patent US11738087B2, “Lymph directing prodrugs” (Monash University, priority 2015, dated 2023)
